Read-outs that look alike come from different tables or passages of the source.
How the values were obtained:
[1] = LC/MS characterization of tigecycline related compounds in human serum, urine and feces; assay type: in vivo; details: in vivo
Excerpt: Three HPLC conditions were used during LC/MS analysis in this study. LC/MS Condition 1 was used for the majority of sample analyses for metabolite characterization and to isolate metabolite M3a from urine. LC/MS Condition 2 was used on selected samples to increase the retention time of glucuronide metabolites and for a co-chromatography experiment to confirm the identity of metabolites M8 and M9. LC/MS Condition 3 was used to analyze the polar metabolite M3a isolated from human urine.
The UV detector was set to monitor 340-360 nm. […] The flow rate was 0.2 mL/min. […] The linear mobile phase gradient is shown below.
Separations were accomplished on a Phenomenex Luna C18(2) column (250×2.0 mm, 5 μm) with a Uniguard C18 guard column (10×2 mm) (ThermoHypersil-Keystone). The flow rate was 0.2 mL/min. […] Mobile phase A was 0.02% trifluoroacetic acid in water (v/v) and mobile phase B was 0.02% trifluoroacetic acid in acetonitrile (v/v). The linear mobile phase gradient is shown below.
A Micromass Quattro Ultima triple quadrupole mass spectrometer (Waters Corp.) was operated in the positive ionization mode. LC/MS analysis with electrospray ionization (ESI) was conducted using a Z-spray interface. ESI-MS analysis of individual fractions from selected samples was conducted by direct infusion into a nanospray interface. Settings for the mass spectrometer are listed below.
Urine and feces samples were analyzed for tigecycline metabolites by LC/MS/MS analysis for precursors of product ions characteristic of tigecycline. Additionally, potential metabolites of tigecycline were searched for in the LC/MS data based upon results from previous studies in animals and humans.
Serum extracts were analyzed for tigecycline and selected metabolites by LC/MS/MS in the selected reaction monitoring (SRM) mode (LC/SRM) to reduce interference from endogenous components. […] The following tigecycline related components were monitored.

[2] = in vivo
Protocol: (§1) An open-label, inpatient, multiple-dose tigecycline, single-dose [^14C]tigecycline metabolic disposition and mass balance study was performed in six healthy male volunteers. The clinical protocol called for twelve subjects. Of these twelve, six received the radioactive dose (subjects 1, 4, 5, 6, 7, and 8 with subject 8 later dropping out of the study.) Eligible subjects were selected based on inclusion/exclusion criteria, medical history, physical examination and additional procedures outlined in the study protocol. Each subject received a 100 mg loading dose on the morning of Day 1, followed by a 50 mg maintenance dose every 12 hours for an additional 5 doses. On the morning of study Day 4, six subjects received a single 50 mg dose of [^14C]tigecycline (50 μCi). Each tigecycline dose was administered via a 30-minute intravenous infusion.
(§2) Serum samples were collected for metabolite profiling prior to tigecycline dosing and 1, 4, 8, 24 and 48 hours following the [^14C]-labeled dose. For metabolite profiling, urine samples were collected at 0-4, 4-8, 8-24 and 24-48 hours and fecal samples were collected up to 48 hours following the [^14C]-labeled dose. Serum and urine samples, and fecal homogenates were shipped on dry ice to the Biotransformation Division of Drug Safety and Metabolism, Wyeth Research, Collegeville, Pa. The details of the sample collection and sample storage are described in the mass balance portion of the study. The 24-48 hour urine and fecal samples for subject #6 were incomplete since the subject withdrew from the study. While samples from this subject were used for metabolite profiling, the samples were not included in the mass balance calculations.
Urine samples for metabolite profiling were extracted, as discussed below, using a method previously developed and used for rat and dog urine samples. Urine samples that had been collected at various intervals up to 48 hours following the dose of [^14C]tigecycline were thawed on ice prior to extraction. Aliquots (1 mL) of the individual urine samples were transferred to clean tubes and 0.2 M EDTA, for a final concentration of 40 mM EDTA, was added. […] Samples were mixed, centrifuged and the supernatants analyzed for metabolites by HPLC radiochromatography with selected samples also analyzed by LC/MS.
HPLC analyses were performed using a Waters 2695 Alliance Separation Module (Waters Corp., Milford, Mass.), a Waters Model 2487 dual wavelength UV absorbance detector, set to monitor 350 nm, and was in-line with a Gilson 215 liquid handler (Gilson, Middleton, Wis.) equipped to collect fractions at 20 second intervals. Fractions were collected into 96-well deep well Luma plates and analyzed using TopCount NXT. The autosampler temperature was set to 4° C. […]

[3] = Stability of [14C]tigecycline during extraction from control human serum; assay type: in vitro ADME
Excerpt: In serum samples, [^14C]tigecycline accounted for 94% of the radioactivity prior to spiking and extracting the samples. After the extraction process, the amount of [^14C]tigecycline had decreased 24% to 70% of the radioactivity. There was a corresponding increase in other radioactive components, mainly the epimer of tigecycline, which increased from 4% prior to extraction to 22% following the extraction. Other minor products, which included M3a, increased from 2% prior to extraction to 8% following the extraction.
Additional serum samples were prepared as descried above and extracted. This was done to determine the effects, if any, of the extraction process on the stability of [^14C]tigecycline. These samples were analyzed by HPLC with radioactivity flow detection, as described in example 6.

[4] = Stability of [14C]tigecycline in control human urine incubated at 37° C.; details: for percent of radioactivity in spiked control urine: 37° C., 5 μg/mL
Protocol: The stability of [^14C]tigecycline was determined in control human urine spiked with [^14C]tigecycline at 5 μg/mL and incubated at 37° C. […] Aliquots (500 μL) were removed at 0, 1, 4, 8 and 24 hours and placed into fresh vials. These urine samples were processed and analyzed as described for serum in control example 2.

[5] = Mass balance: percent of [14C]tigecycline dose excreted in human urine and feces
Protocol: The concentration of tigecycline-related components in serum, urine and feces was calculated based on the total radioactivity concentrations reported elsewhere. These concentrations were converted to ng-tigecycline equivalents using the specific activity of the dose (1.00 μCi/mg). Using this value, the concentrations of the specific components were then estimated based on the distribution of radioactivity in the radiochromatograms.
as §1, §2

[6] = Stability of [14C]tigecycline in control human serum incubated at 37° C.; details: for percent radioactivity in spiked control serum: 37° C., 3 μg/mL
Protocol: The stability of [^14C]tigecycline was examined in control serum incubated at 37° C. for up to 24 hours.
The stability of [^14C]tigecycline was determined in control human serum spiked with [^14C]tigecycline at 3 μg/mL and incubated at 37° C. […] Aliquots (500 μL) were removed at 0, 1, 4, 8 and 24 hours and placed into fresh vials. EDTA (40 μL of 0.5 M) was added and samples centrifuged at 14,000 rpm and room temperature for 10 min (Eppendorf centrifuge, Model 5415C). Supernatants were transferred to HPLC vials and analyzed by HPLC with radioactivity flow detection.

[7] = dogs, cited from earlier work
[8] = Stability of [14C]tigecycline during extraction from control human fecal homogenates; assay type: in vitro ADME
Excerpt: Similar results were observed following the extraction of [^14C]tigecycline from control fecal homogenates. In these samples, [^14C]tigecycline accounted for 94% of the radioactivity prior to extraction and 68% following the extraction. There was a corresponding increase in the epimer of tigecycline, which represented 4% of the radioactivity prior to extraction and 23% following the extraction. […] Other minor products represented less than 1% of the radioactivity prior to the extraction and 4% following the extraction.
The stability of [^14C]tigecycline during the extraction process was determined in control human fecal homogenates spiked with [^14C]tigecycline at 5 μg/g of homogenate. […] Samples were extracted and analyzed by HPLC with radioactivity flow detection.

[9] = rats, cited from earlier work
[10] = LC/MS detection of tigecycline metabolites in CD-1 mouse serum and urine after intravenous tigecycline; details: mouse, in vivo, iv, 5 mg/kg
Protocol: Fifteen male CD-1 mice, with an average weight of 31.3 g at the time of dosing, were used. Animals were given food and water ad libitum. Mice in the 0.5 and 2 hour blood collection groups were housed in standard cages, while those in the 4 hour blood collection group were housed in metabolism cages for the collection of urine. Mice were dosed by the Bioresources Department at Wyeth Research, Collegeville, Pa.
For mice and rabbits, the intravenous dosing solutions was prepared by dissolving 50 mg of tigecycline in 5.0 mL of 0.9% sterile saline solution to make a working stock solution. The working stock solution was diluted with 0.9% sterile saline solution to 0.5 mg/mL for mice and 4 mg/mL for rabbits. The mouse dose (5 mg/kg, 10 mL/kg) was administered as a bolus injection via the tail vein. The rabbit dose (4 mg/kg, 1 mL/kg) was administered as a bolus injection via the marginal vein of the ear.
For mice (n=5/time point), blood (approximately 0.7 mL) was collected by cardiac puncture at 0.5, 2 and 4 hours following administration of tigecycline. For rabbits, blood (approximately 7 mL) was collected via the ear vein at 0.5, 2 and 6 hours following the tigecycline dose. Serum was separated following clot formation at room temperature and centrifugation for 15 minutes at 4° C. and 3000 rpm. The serum was transferred to a fresh tube and was stored at approximately −70° C. until analysis as described below under “Serum Sample Preparation for LC/MS Analysis. In addition, urine was collected from mice in the 4 hour blood collection group and was stored at approximately −70° C. until analysis, as described below under “Urine Sample Preparation for LC/MS Analysis.”
Mouse urine was thawed and an aliquot (1 mL) transferred to a fresh tube. The sample was centrifuged at 14,000 rpm and room temperature for 10 minutes using a Model 5415C Eppendorf centrifuge (Brinkmann Instruments, Westbury, N.Y.) to remove any particulates. The sample was then transferred to a fresh tube and was analyzed by LC/MS, as described below under “Liquid Chromatography/Mass Spectrometry Analysis.”.
Mouse and rabbit serum samples were pooled at each collection time and analyzed for tigecycline, its epimer, tigecycline glucuronide (M7 and its epimer M6), 9-aminominocycline (M3) and N-acetyl-9-aminominocycline (M9 and its epimer M8). Aliquots of serum (500 μL) were transferred to new tubes and deuterated tigecycline (30 ng/mL final concentration) was added as an internal standard (quantitative analysis only). EDTA (40 μL of 0.5 M EDTA) was added to each sample and the samples vortex mixed. Acetonitrile (500 μL) was added to each sample, samples were vortex mixed and denatured protein separated by centrifugation at 14,000 rpm and room temperature for 10 minutes using a Model 5415C Eppendorf centrifuge (Brinkmann Instruments). The supernatant was transferred to a fresh tube and the solvent evaporated under a stream of nitrogen using a Turbovap Model LV evaporator (Caliper Life Sciences, Hopkinton, Mass.).
The HPLC system used for mass spectrometric analysis was a Waters Alliance Model 2695 HPLC system (Waters Corp., Milford, Mass.). It was equipped with a built-in autosampler and a Model 996 diode array UV detector. The UV detector was set to monitor 210-400 nm. Separations for metabolite characterization were accomplished on a Phenomenex Luna C18(2) column (150×2.1 mm, 5 μm) (Phenomenex, Torrance, Calif.) equipped with a Keystone Uniguard C18 guard column (10×2.1 mm) (Thermo Electron Corp., Bellefonte, Pa.). The column temperature was 25° C. The flow rate was 0.2 mL/min. Mobile phase A was 10 mM ammonium acetate in water and mobile phase B was acetonitrile.

[11] = Tigecycline metabolites identified in CD-1 mouse serum and urine and rabbit serum samples (LC/MS); assay type: in vivo; details: in vivo, iv
Protocol: The column temperature was 25° C. The flow rate was 0.2 mL/min. […] Gradient 1 was used for metabolite identification (qualitative analysis).
LC/MS analysis was conducted on extracts of serum and from CD-1 mice and rabbits, and on urine from CD-1 mice. The mass spectral data for tigecycline and its metabolites are discussed below.

Hydroxy Tigecycline [Metabolite M1]
relative amount in human urine based on LC/MS data [1]: trace amounts | percent of the radioactivity in urine [2]: less than 1%

CC(=O)Nc1cc(N(C)C)c2c(c1O)C(=O)C1=C(O)[C@]3(O)C(=O)C(C(N)=O)=C(O)[C@H](N(C)C)[C@@H]3C[C@@H]1C2 (single isomer, unassigned) [Metabolite M8, epimer of N-acetyl-9-aminominocycline]
relative amount in human serum based on LC/MS data [1]: minor metabolites | relative amount in human urine based on LC/MS data [1]: minor metabolites

CN(C)c1cc(N[14C](=O)CNC(C)(C)C)c(O)c2c1CC1CC3C(N(C)C)C(O)=C(C(N)=O)C(=O)C3(O)C(O)=C1C2=O (centres unmarked) [[^14C]tigecycline]
percent of the radioactivity, control serum ([3]; after the extraction process): 70% | decrease in percent of the radioactivity, control serum ([3]; during the extraction process): 24% | percent of the radioactivity, control serum ([3]; prior to spiking and extracting): 94% | percent of radioactivity in spiked control urine ([4]; 0 hours): 92% | decrease in percent of radioactivity in spiked control urine ([4]; 0 to 24 hours at 37° C.): 18% | percent of radioactivity in spiked control urine ([4]; 24 hours): 74% | radioactivity excreted in feces (mean) ([5]; complete collection, n=3): 58.6±4.4% | radioactivity excreted in urine (mean) ([5]; complete collection, n=3): 33.2±1.9% | [14C]tigecycline dose recovered ([5]; first 48 hours, urine + feces): Approximately 50% | Mean total recovery of radioactivity in human excreta ([5]; urine + feces, n=3): 91.8% | percent radioactivity in spiked control serum ([6]; 0 hours): 90% | percent radioactivity in spiked control serum ([6]; 24 hours): 81% | decrease in percent radioactivity in spiked control serum ([6]; over 24 hours at 37° C.): approximately 9% | single intravenous [14C]tigecycline dose recovered ([7]; including cage rinse): approximately 89% | dose recovered in feces [7]: 47% | dose recovered in urine [7]: 36% | percent of the radioactivity, control fecal homogenates ([8]; following the extraction): 68% | percent of the radioactivity, control fecal homogenates ([8]; prior to extraction, 5 μg/g of homogenate): 94% | single intravenous [14C]tigecycline dose recovered ([9]; including cage rinse): approximately 89% | dose recovered in feces [9]: 53% | dose recovered in urine [9]: 34%

CN(C)c1cc(N)c(O)c2c1C[C@H]1C[C@H]3[C@H](N(C)C)C(=O)C(C(N)=O)=C(O)[C@@]3(O)C(=O)C1=C2O [Metabolite M3, 9-aminominocycline]
relative amount in human serum based on LC/MS data [1]: minor metabolites | relative amount in human urine based on LC/MS data [1]: minor metabolites | observed in mouse urine by LC/MS [10]: detected | Species and matrix in which identified [11]: R-S, M-S, M-U
